Experimental data: ChEMBL document CHEMBL4118122, “Identification and biological evaluation of thiazole-based inverse agonists of RORγt” (Bioorg Med Chem Lett, 2018)

Key:
[1] = Thermodynamic solubility of the compound in fasted state simulated intestinal […] after 2 to 5 days by UV-HPLC analysis; type: physicochemical; conditions: read-out: Therm_solubility
[2] = biological target: Casein kinase II subunit alpha (Homo sapiens) (UniProt P68400); experiment: Inhibition of CK2alpha1 (unknown origin) at 10 uM in presence of ATP relative to control
Casein kinase II subunit alpha (Homo sapiens), sequence (P68400 whole entry, looked up): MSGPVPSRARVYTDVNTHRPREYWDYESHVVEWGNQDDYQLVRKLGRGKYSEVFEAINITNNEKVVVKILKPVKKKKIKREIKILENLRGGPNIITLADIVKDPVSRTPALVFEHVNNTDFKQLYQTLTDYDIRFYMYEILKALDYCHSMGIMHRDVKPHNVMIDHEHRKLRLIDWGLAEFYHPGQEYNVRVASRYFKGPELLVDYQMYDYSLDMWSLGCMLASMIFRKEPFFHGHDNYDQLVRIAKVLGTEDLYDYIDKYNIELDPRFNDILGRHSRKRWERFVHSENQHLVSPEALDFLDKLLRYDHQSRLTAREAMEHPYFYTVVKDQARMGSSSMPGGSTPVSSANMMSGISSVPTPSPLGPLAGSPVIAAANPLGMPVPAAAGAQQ

[3] = biological target: Mitogen-activated protein kinase 13 (Homo sapiens) (UniProt O15264); experiment: Inhibition of recombinant full length His-tagged human p38delta expressed in baculovirus expression system at 10 uM in presence of ATP relative to control
Mitogen-activated protein kinase 13 (Homo sapiens), sequence (O15264 whole entry): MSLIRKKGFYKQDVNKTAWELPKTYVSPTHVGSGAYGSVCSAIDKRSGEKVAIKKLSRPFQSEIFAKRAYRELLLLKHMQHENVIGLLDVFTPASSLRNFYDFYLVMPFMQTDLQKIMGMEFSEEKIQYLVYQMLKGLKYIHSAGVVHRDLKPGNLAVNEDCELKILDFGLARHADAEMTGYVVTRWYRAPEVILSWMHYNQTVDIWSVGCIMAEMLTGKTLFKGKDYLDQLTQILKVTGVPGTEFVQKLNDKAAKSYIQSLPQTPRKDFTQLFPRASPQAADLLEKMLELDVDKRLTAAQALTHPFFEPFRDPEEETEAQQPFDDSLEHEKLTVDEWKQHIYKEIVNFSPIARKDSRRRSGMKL

[4] = biological target: Muscarinic acetylcholine receptor M3 (Homo sapiens, UniProt P20309); experiment: Displacement of [3H]4-DAMP from human recombinant M3 receptor at 10 uM after 60 mins by scintillation counting analysis relative to control
[5] = biological target: Substance-K receptor (Homo sapiens) (UniProt P21452); experiment: Displacement of [125I]NKA from human recombinant NK2 receptor at 10 uM after 60 mins by scintillation counting analysis relative to control
Substance-K receptor (Homo sapiens), sequence (P21452 whole entry): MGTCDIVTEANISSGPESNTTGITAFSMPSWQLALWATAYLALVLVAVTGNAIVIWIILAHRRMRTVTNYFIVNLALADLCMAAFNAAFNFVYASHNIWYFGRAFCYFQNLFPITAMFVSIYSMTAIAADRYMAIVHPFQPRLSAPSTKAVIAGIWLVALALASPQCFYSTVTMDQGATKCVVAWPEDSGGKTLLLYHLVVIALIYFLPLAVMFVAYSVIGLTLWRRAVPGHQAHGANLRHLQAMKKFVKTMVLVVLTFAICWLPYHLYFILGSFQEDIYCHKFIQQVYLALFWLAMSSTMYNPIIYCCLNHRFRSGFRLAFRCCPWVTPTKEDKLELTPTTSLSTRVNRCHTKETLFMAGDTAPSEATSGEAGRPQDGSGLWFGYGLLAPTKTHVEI

[6] = biological target: Galanin receptor type 2 (Homo sapiens) (UniProt O43603); experiment: Displacement of [125I]-endothelin-1 from human recombinant GAL2 receptor at 1 uM after 120 mins by scintillation counting analysis relative to control
Galanin receptor type 2 (Homo sapiens), sequence (O43603 whole entry): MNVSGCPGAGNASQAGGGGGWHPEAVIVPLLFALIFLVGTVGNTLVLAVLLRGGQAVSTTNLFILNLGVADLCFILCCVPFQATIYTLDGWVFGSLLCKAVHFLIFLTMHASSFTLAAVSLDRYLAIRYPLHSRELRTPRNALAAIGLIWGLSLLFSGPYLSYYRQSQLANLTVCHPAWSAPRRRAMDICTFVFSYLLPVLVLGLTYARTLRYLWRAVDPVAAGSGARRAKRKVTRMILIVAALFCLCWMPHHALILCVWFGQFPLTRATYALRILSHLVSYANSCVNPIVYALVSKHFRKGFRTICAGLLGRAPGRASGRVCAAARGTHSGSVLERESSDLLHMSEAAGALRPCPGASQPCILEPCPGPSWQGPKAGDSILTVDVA

[7] = biological target: 5-hydroxytryptamine receptor 2A (Homo sapiens, UniProt P28223); experiment: Displacement of [3H]ketanserin human recombinant 5-HT2A receptor at 10 uM after 60 mins by scintillation counting analysis relative to control
5-hydroxytryptamine receptor 2A, sequence (P28223 whole entry): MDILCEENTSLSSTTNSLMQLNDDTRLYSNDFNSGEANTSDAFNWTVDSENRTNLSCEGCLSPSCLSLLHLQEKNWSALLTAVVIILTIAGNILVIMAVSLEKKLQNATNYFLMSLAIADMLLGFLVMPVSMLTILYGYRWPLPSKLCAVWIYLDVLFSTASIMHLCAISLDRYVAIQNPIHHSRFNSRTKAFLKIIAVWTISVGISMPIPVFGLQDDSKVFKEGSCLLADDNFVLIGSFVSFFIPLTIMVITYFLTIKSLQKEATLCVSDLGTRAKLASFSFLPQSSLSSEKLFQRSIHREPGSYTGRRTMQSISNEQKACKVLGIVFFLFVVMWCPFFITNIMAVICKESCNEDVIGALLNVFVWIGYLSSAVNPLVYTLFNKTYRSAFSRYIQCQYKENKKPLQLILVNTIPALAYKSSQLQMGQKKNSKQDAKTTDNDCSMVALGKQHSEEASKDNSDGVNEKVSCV

[8] = organism: Rattus norvegicus; experiment: Displacement of [3H]batrachotoxinin from rat brain voltage gated sodium ion channel site 2 at 1 uM after 60 mins by scintillation counting analysis relative to control
[9] = biological target: Serine/threonine-protein kinase pim-2 (Homo sapiens) (UniProt Q9P1W9); experiment: Inhibition of recombinant full length GST-tagged human PIM2 expressed in baculovirus expression system at 10 uM in presence of ATP relative to control
Serine/threonine-protein kinase pim-2 (Homo sapiens), sequence (Q9P1W9 whole entry, looked up, canonical isoform): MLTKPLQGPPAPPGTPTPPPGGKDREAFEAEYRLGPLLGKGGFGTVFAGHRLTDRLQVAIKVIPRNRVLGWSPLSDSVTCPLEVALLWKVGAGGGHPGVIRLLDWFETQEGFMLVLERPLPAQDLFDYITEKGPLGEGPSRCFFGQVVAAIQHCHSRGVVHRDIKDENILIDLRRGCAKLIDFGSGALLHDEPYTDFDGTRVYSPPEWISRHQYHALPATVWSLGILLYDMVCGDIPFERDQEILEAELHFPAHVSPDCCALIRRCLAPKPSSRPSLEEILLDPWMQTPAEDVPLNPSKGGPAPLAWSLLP

[10] = biological target: Casein kinase I isoform epsilon (Homo sapiens) (UniProt P49674); experiment: Inhibition of CK1epsilon (unknown origin) at 10 uM in presence of ATP relative to control
Casein kinase I isoform epsilon (Homo sapiens), sequence (P49674 whole entry, looked up, canonical isoform): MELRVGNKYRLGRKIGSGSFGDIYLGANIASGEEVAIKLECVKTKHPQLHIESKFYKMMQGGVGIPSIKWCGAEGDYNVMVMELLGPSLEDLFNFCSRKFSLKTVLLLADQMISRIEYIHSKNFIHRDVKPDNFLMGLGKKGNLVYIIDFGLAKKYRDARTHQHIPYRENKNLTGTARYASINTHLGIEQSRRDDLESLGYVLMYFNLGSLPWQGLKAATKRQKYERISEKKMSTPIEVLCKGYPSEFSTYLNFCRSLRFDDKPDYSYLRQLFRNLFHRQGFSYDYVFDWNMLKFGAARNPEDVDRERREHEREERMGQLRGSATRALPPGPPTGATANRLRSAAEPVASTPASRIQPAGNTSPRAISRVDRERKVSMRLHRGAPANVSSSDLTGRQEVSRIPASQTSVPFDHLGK

[11] = organism: Rattus norvegicus; experiment: Binding affinity to rat GABA receptor at 10 uM after 60 mins by radioligand binding assay relative to control
[12] = organism: Rattus norvegicus; experiment: Displacement of [125I]alpha-dendrotoxin from rat brain voltage-gated K channel at 10 uM after 60 mins by scintillation counting analysis relative to control
[13] = biological target: D(1A) dopamine receptor (Homo sapiens, UniProt P21728); experiment: Displacement of [3H]-SCH 23390 from human recombinant dopamine D1 receptor at 10 uM after 60 mins by scintillation counting analysis relative to control
[14] = biological target: Substance-K receptor (Homo sapiens) (UniProt P21452); experiment: Displacement of [125I]NKA from human recombinant NK2 receptor at 1 uM after 60 mins by scintillation counting analysis relative to control
[15] = biological target: Neurotensin receptor type 1 (Homo sapiens, UniProt P30989); experiment: Displacement of [125I]Tyr3-neurotensin from human recombinant NTS1 receptor at 1 uM after 120 mins by scintillation counting analysis relative to control
Neurotensin receptor type 1, sequence (P30989 whole entry): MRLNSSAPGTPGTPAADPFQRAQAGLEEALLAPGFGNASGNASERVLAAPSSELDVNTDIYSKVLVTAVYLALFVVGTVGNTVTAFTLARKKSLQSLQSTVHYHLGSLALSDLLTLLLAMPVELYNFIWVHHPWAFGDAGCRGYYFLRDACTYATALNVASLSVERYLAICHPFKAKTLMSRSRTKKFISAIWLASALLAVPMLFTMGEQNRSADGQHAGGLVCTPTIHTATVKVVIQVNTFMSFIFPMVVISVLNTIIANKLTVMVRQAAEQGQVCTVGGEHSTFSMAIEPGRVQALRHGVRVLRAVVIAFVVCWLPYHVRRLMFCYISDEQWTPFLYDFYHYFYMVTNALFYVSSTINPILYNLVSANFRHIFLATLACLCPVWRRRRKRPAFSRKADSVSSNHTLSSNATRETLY

[16] = biological target: Mitogen-activated protein kinase 3 (Homo sapiens) (UniProt P27361); experiment: Inhibition of recombinant full length GST-tagged human ERK1 expressed in Escherichia coli at 10 uM in presence of ATP relative to control
Mitogen-activated protein kinase 3 (Homo sapiens), sequence (P27361 whole entry, the tested form may be a part): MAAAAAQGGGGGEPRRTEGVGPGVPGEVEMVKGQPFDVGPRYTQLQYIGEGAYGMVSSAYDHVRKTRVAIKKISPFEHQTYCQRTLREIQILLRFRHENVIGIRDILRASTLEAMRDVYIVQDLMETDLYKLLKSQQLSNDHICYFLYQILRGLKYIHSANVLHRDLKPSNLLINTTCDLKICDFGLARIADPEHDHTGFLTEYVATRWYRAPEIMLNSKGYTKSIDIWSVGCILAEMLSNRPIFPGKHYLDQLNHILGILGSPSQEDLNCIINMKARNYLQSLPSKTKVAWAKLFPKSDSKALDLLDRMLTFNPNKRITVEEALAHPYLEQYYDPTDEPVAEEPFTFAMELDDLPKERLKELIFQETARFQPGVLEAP

[17] = biological target: Fibroblast growth factor receptor 1 (Homo sapiens) (UniProt P11362); experiment: Inhibition of recombinant His-tagged human FGFR1 cytoplasmic domain expressed in baculovirus expression system at 10 uM in presence of ATP relative to control
[18] = biological target: Kappa-type opioid receptor (Homo sapiens, UniProt P41145); experiment: Displacement of [3H]U69593 from human kappa receptor after 60 mins by scintillation counting analysis
Kappa-type opioid receptor, sequence (P41145 whole entry, the tested form may be a part): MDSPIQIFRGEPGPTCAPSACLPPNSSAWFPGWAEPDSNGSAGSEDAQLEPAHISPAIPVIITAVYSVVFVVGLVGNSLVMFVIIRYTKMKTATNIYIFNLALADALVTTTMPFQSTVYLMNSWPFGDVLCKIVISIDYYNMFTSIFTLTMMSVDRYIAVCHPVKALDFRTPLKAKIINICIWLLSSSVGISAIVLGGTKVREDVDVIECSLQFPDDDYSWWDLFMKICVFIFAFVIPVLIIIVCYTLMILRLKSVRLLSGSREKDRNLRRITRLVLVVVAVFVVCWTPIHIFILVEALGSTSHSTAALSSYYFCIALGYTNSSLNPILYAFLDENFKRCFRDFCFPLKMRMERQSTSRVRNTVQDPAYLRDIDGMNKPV

[19] = biological target: T1, PXR (NR1I2) (Homo sapiens, UniProt O75469); experiment: […] at PXR LBD (unknown origin) expressed in HEK293 cells […] at 1 uM after 16 hrs by luciferase reporter gene assay relative to rifampicin; type: ADME, cell-based; conditions: HEK293 cells expressing PXR LBD, read-out: Efficacy
T1 sequence (O75469 whole entry): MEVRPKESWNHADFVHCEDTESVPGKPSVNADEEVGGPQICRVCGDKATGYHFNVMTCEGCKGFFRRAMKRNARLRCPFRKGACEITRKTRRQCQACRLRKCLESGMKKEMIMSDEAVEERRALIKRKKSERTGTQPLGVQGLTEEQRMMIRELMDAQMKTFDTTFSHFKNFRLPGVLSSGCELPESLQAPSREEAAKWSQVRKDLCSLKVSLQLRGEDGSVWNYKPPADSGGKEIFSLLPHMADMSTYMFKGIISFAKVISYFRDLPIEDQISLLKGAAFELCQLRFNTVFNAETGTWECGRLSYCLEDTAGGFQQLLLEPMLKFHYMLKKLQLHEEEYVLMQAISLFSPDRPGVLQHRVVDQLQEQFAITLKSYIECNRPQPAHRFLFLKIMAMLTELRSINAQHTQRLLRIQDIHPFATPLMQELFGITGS

[20] = biological target: Serine/threonine-protein kinase PAK 3 (Homo sapiens) (UniProt O75914); experiment: Inhibition of recombinant full length His-tagged human PAK3 expressed in baculovirus expression system at 10 uM in presence of ATP relative to control
Serine/threonine-protein kinase PAK 3 (Homo sapiens), sequence (O75914 whole entry, looked up): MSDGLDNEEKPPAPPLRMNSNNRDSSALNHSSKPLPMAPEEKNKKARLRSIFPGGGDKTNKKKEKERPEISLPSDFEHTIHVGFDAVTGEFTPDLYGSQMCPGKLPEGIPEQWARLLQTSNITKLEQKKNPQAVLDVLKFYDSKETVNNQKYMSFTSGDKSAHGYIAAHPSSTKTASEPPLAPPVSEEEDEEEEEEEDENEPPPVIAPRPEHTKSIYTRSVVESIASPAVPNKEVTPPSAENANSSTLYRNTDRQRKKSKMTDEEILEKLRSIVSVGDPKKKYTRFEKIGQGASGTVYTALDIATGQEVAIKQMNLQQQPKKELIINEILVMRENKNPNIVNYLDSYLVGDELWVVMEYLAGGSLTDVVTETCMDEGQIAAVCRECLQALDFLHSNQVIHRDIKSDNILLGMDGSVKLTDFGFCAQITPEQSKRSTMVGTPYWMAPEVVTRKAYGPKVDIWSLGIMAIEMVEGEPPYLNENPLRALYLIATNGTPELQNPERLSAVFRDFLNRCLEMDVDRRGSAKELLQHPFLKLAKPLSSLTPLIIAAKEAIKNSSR

[21] = biological target: Cholecystokinin receptor type A (Homo sapiens, UniProt P32238); experiment: Displacement of [125I]CCK-8s from human recombinant CCK1 receptor after 60 mins by scintillation counting analysis
Cholecystokinin receptor type A, sequence (P32238 whole entry): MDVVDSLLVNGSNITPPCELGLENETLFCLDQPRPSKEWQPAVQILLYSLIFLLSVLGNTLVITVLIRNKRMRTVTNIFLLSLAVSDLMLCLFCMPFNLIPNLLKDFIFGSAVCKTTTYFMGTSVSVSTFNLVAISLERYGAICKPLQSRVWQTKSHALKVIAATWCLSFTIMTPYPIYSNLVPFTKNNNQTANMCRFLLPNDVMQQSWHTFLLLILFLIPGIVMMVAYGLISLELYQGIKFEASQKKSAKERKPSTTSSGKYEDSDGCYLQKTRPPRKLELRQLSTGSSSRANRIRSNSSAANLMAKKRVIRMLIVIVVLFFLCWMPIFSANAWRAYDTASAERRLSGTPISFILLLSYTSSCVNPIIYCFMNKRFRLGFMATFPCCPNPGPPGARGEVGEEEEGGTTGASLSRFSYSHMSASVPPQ

[22] = biological target: RAC-alpha serine/threonine-protein kinase (Homo sapiens) (UniProt P31749); experiment: Inhibition of recombinant full length His-tagged human AKT1 expressed in baculovirus expression system at 10 uM in presence of ATP relative to control
[23] = biological target: T2, Cytochrome P450 1A2 (Homo sapiens, UniProt P05177); experiment: Inhibition of CYP1A2 (unknown origin); type: ADME
T2 sequence (P05177 whole entry): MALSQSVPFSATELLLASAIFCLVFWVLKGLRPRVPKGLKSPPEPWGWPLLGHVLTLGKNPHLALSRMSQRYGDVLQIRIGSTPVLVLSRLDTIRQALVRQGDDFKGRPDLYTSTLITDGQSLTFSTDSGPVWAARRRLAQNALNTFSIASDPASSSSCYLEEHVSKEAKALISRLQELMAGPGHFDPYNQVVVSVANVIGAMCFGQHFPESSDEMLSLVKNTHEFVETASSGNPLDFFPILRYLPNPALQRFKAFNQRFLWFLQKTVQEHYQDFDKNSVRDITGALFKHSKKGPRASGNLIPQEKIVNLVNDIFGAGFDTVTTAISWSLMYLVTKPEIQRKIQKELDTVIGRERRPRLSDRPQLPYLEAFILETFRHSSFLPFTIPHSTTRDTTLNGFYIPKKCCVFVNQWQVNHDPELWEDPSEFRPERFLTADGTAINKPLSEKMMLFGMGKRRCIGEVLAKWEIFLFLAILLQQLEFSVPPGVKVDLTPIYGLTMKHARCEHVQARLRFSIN

Question: For `CC(C)(C)NS(=O)(=O)c1ccc(-c2sc(C(=O)N[C@H]3C[C@H](C(=O)O)C3)nc2CC2CCCCC2)c2ccccc12`, which solubility thermodynamic [1] is on record?
Answer: The solubility thermodynamic was greater than 400 µM.

Question: What about the inhibition [2] of the same compound?
Answer: Its inhibition is 0%.

Question: What about the inhibition [3] of the same compound?
Answer: The inhibition was -4%.

Question: And the inhibition [4]?
Answer: Its inhibition is 23%.

Question: And the inhibition [5]?
Answer: Its inhibition is less than 10%.

Question: What about the inhibition [6] of the same compound?
Answer: Its inhibition is less than 10%.

Question: What about the inhibition [7] of the same compound?
Answer: The inhibition was less than 10%.

Question: And the inhibition [8]?
Answer: Its inhibition is less than 10%.

Question: What about the inhibition [9] of the same compound?
Answer: The inhibition was 4%.

Question: What about the inhibition [10] of the same compound?
Answer: Its inhibition is 4%.

Question: And the inhibition [11]?
Answer: The inhibition was 14%.

Question: What about the inhibition [12] of the same compound?
Answer: The inhibition was less than 10%.

Question: And the inhibition [13]?
Answer: Its inhibition is 12%.

Question: And the inhibition [14]?
Answer: The inhibition was less than 10%.

Question: And the inhibition [15]?
Answer: The inhibition was less than 10%.

Question: And the inhibition [16]?
Answer: Its inhibition is -7%.

Question: And the inhibition [17]?
Answer: Its inhibition is 2%.

Question: What about the IC50 [18] of the same compound?
Answer: Its IC50 is 1.1 nM.

Question: What about the Emax at 16 h, 1 µM [19] of the same compound?
Answer: Its Emax at 16 h, 1 µM is 141%.

Question: What about the inhibition [20] of the same compound?
Answer: The inhibition was 5%.

Question: And the IC50 [21]?
Answer: Its IC50 is 0.12 nM.

Question: And the inhibition [22]?
Answer: The inhibition was -5%.

Question: And the INH [23]?
Answer: Its INH is greater than 10 µM.
